Assay results reported in patent US4596893A (priority 1985, dated 1986).

Assays:
Test in all cases: Herbicide activity test in green house
Type in all cases: in vivo
[1] = system: pig weed; details: dose 1.25 kg/ha, sprayed at 2-4 leaves, evaluated on 14th day
[2] = system: Italian grass; details: dose 1.25 kg/ha, sprayed at 2-4 leaves, evaluated on 14th day
[3] = system: Italian grass; details: sprayed at 2-4 leaves, evaluated on 14th day
Experimental: (§1) In culture dishes white mustard, pig weed, fat hen, autumn wheat, Italian grass and corn seeds were sown. When the seeds were sprouted 10% EC and 10% WSC were prepared from the compounds to be tested, and after dilution with water 0.2% spray was prepared. 2-4 leaves plants were sprayed with this liquid so that for each compound a dose corresponding to 2.5-5-10 kg./ha active ingredient was used. On the 14th day after the treatment the extent of the injury of the plants was evaluated and expressed in %.

[4] = system: pig weed; details: sprayed at 2-4 leaves, evaluated on 14th day
Experimental: as §1

[5] = system: fat hen; details: sprayed at 2-4 leaves, evaluated on 14th day
Experimental: as §1

[6] = system: autumn wheat; details: sprayed at 2-4 leaves, evaluated on 14th day
Experimental: as §1

[7] = system: white mustard; details: sprayed at 2-4 leaves, evaluated on 14th day
Experimental: as §1

[8] = system: corn; details: sprayed at 2-4 leaves, evaluated on 14th day
Experimental: as §1

[9] = system: fat hen; details: dose 1.25 kg/ha, sprayed at 2-4 leaves, evaluated on 14th day
[10] = system: corn; details: dose 1.25 kg/ha, sprayed at 2-4 leaves, evaluated on 14th day
[11] = system: white mustard; details: dose 1.25 kg/ha, sprayed at 2-4 leaves, evaluated on 14th day
[12] = system: autumn wheat; details: dose 1.25 kg/ha, sprayed at 2-4 leaves, evaluated on 14th day

Row | Structure (SMILES) | extent of the injury of the plants, pig weed [1] | extent of the injury of the plants, Italian grass [2] | extent of the injury of the plants, Italian grass ([3]; dose 2.5 kg/ha) | extent of the injury of the plants, Italian grass ([3]; dose 5.0 kg/ha) | extent of the injury of the plants, pig weed ([4]; dose 2.5 kg/ha) | extent of the injury of the plants, pig weed ([4]; dose 5.0 kg/ha) | extent of the injury of the plants, fat hen ([5]; dose 2.5 kg/ha) | extent of the injury of the plants, fat hen ([5]; dose 5.0 kg/ha) | extent of the injury of the plants, autumn wheat ([6]; dose 2.5 kg/ha) | extent of the injury of the plants, autumn wheat ([6]; dose 5.0 kg/ha) | extent of the injury of the plants, white mustard ([7]; dose 2.5 kg/ha) | extent of the injury of the plants, white mustard ([7]; dose 5.0 kg/ha) | extent of the injury of the plants, corn ([8]; dose 2.5 kg/ha) | extent of the injury of the plants, corn ([8]; dose 5.0 kg/ha) | extent of the injury of the plants, fat hen [9] | extent of the injury of the plants, corn [10] | extent of the injury of the plants, white mustard [11] | extent of the injury of the plants, autumn wheat [12]
1 | O=[N+]([O-])c1cc([N+](=O)[O-])c(O)c(C(F)(F)F)c1 [2-trifluoromethyl-4,6-dinitro-phenol-K] | 45% | 0% | 10% | 15% | 85% | 100% | 90% | 100% | 0% | 15% | 75% | 90% | 10% | 15% | 70% | 0% | 65% | 0%
2 | CCC(=O)Oc1c([N+](=O)[O-])cc([N+](=O)[O-])cc1C(F)(F)F [2-trifluoromethyl-4,6-dinitro-phenol-ethyl carbonyl] | 40% | 0% | 0% | 10% | 60% | 80% | 70% | 80% | 0% | 10% | 50% | 80% | 0% | 10% | 60% | 0% | 40% | 0%
3 | CNC.O=[N+]([O-])c1cc([N+](=O)[O-])c(O)c(C(F)(F)F)c1 [2-trifluoromethyl-4,6-dinitro-phenol-dimethyl-amine] | 50% | 0% | 0% | 20% | 65% | 80% | 75% | 85% | 0% | 10% | 55% | 75% | 0% | 10% | 70% | 0% | 45% | 0%
4 | O=[N+]([O-])c1cc([N+](=O)[O-])c(O)c(C(F)(F)F)c1 [2-trifluoromethyl-4,6-dinitro-phenol, 2-Trifluoromethyl-4,6-dinitro-phenol] | 50% | 0% | 10% | 30% | 85% | 100% | 90% | 100% | 5% | 10% | 75% | 95% | 5% | 15% | 75% | 0% | 45% | 0%
5 | O=[N+]([O-])c1cc([N+](=O)[O-])c(O)c(C(F)(F)F)c1 [2-trifluoromethyl-4,6-dinitro-phenol-Na] | 60% | 0% | 10% | 15% | 85% | 100% | 90% | 100% | 0% | 15% | 80% | 100% | 10% | 15% | 70% | 0% | 50% | 0%
6 | O=[N+]([O-])c1cc([N+](=O)[O-])c(O)c(C(F)(F)F)c1 [2-trifluoromethyl-4,6-dinitro-phenol-diethanol-amine] | 50% | 0% | – | 10% | 60% | 85% | 75% | 80% | – | 10% | 60% | 80% | – | 10% | 70% | 0% | 40% | 0%
7 | CC(=O)Oc1c([N+](=O)[O-])cc([N+](=O)[O-])cc1C(F)(F)F [2-trifluoromethyl-4,6-dinitrophenol methyl carbonyl] | 50% | 0% | 10% | 20% | 80% | 95% | 90% | 100% | 0% | 10% | 70% | 90% | 0% | 10% | 70% | 0% | 40% | 0%
